Measured values as given in BindingDB's records for doi:10.1016/j.bmcl.2004.01.047 (University of Huddersfield, 2004).

Assay: Binding affinity against metallo-beta-lactamase bacillus cereus(BCII)

For CC1CS[C@H](c2nc(O)c(-c3ccccc3)[nH]c2=S)NC1C(=O)O (stereo partly drawn) [(R)-5-Methyl-2-(6-oxo-5-phenyl-3-thioxo-piperazin-2-yl)-3,6-dihydro-2H-[1,3]thiazine-4-carboxylic acid anion], the Ki was 29 µM.
